Where “and” joins values, the source holds several entries; their conditions need not be identical. Equal entries are not always repeated. Where two headings read alike, the source gives them in different places.
Key:
[1] = Pharmacokinetics and plasma concentration of Example 101 in Lewis rats after oral administration (CIA study); assay type: in vivo, Lewis rat; conditions: oral; for MRT inf: read-out: MRTInf—obs
IL-17A = IL-17A levels by ELISA in stimulated human peripheral blood mononuclear cells; assay type: cell-based; conditions: for IC50: Homo sapiens, PBMC
Procedure: (§1) CD2, CD3, and CD28 antibody-coated beads from the T-cell activation/expansion kit (Miltenyi Biotec) were added to the PBMC at a bead-to-cell ratio of 1:2.
(§2) The mixture of PBMCs and beads were seeded into the wells of the round-bottom 96-well plate at a concentration of 2×10^5 cells/well in a total volume of 200 μL. The cells were cultured for 72 hours at 37° C. and 5% CO2 and then supernatants were collected and IL-17A and IL-22 levels were measured by ELISA. […] The final compound concentration ranged from 30,000 nM to 0.005 nM and the final DMSO concentration per well was 0.3%. PBMCs were seeded at approximately 2×10^5 cells/well in the wells of the 96-well tissue culture plate in a total volume of 190 μL. The plate was incubated for 1 hour at 37° C. and 5% CO2. […] The cells were then cultured for 24 hours at 37° C. and 5% CO2. The supernatant was collected and CXCL10 levels were measured by ELISA.

IL-22 = IL-22 levels by ELISA in stimulated human peripheral blood mononuclear cells; assay type: cell-based; conditions: for IC50: Homo sapiens, PBMC
Procedure: as §1, §2

CXCL10 = CXCL10 levels by ELISA in IFN-γ stimulated human peripheral blood mononuclear cells; assay type: cell-based; conditions: human PBMC
Procedure: The impact of Examples 23, 80, and 101 on IL-17A, IL-22, and CXCL10 levels was analyzed in cryopreserved human peripheral blood mononuclear cells (PBMC) by ELISA. […] For IL-17A and IL-22 assays, Examples 23, 80, and 101 were serially diluted from 10 mM in DMSO and further diluted in assay media to 100× the required final concentration, of which, 2 μL was added per well to a round-bottom 96-well tissue culture plate where the final DMSO concentration per well was 0.1%. CD2, CD3, and CD28 antibody-coated beads from the T-cell activation/expansion kit (Miltenyi Biotec) were added to the PBMC at a bead-to-cell ratio of 1:2.
The mixture of PBMCs and beads were seeded into the wells of the round-bottom 96-well plate at a concentration of 2×10^5 cells/well in a total volume of 200 μL. The cells were cultured for 72 hours at 37° C. and 5% CO2 and then supernatants were collected and IL-17A and IL-22 levels were measured by ELISA. For the CXCL10 assay, Examples 23, 80, and 101 were serially diluted from 10 mM in DMSO and further diluted in assay media to 100× the required final concentration, of which 2 μL was added per well to a 96-well tissue culture plate. The final compound concentration ranged from 30,000 nM to 0.005 nM and the final DMSO concentration per well was 0.3%. PBMCs were seeded at approximately 2×10^5 cells/well in the wells of the 96-well tissue culture plate in a total volume of 190 μL. The plate was incubated for 1 hour at 37° C. and 5% CO2. The cells were then stimulated with IFN-γ (15 ng/mL final concentration) in a volume of 10 μL. The cells were then cultured for 24 hours at 37° C. and 5% CO2. The supernatant was collected and CXCL10 levels were measured by ELISA.

[2] = Lewis, rat, plasma, po, 10 mg/kg, day 0, 10 mg/kg, per test subject
[3] = Lewis, rat, plasma, po, 10 mg/kg, day 20, 10 mg/kg, per test subject
[4] = day 0, 10 mg/kg, per test subject
[5] = day 20, 10 mg/kg, per test subject

## CNC(=O)c1[nH]c(C(=O)NC2CCC2)cc1O[C@@H](C)c1ccccc1 (stereo in doubt) [Example 101, N^5-cyclobutyl-N^2-methyl-3-(1-phenylethoxy)-1H-pyrrole-2,5-dicarboxamide]
[1]; [2]
  AUC(0-t): 14300 ng·h/mL
  MRT inf: 7.64 h
[1]; Lewis, rat, plasma, po, 10 mg/kg, day 0, 10 mg/kg, per test subject, read-out: Cmax
  Cmax: 1880 ng/mL
[1]; [3]
  AUC(0-inf): 8500 ng·h/mL
  AUC(0-t): 8420 ng·h/mL
  half-life: 3.46 h
  MRT inf: 6.09 h
[1]; Lewis, rat, plasma, po, 10 mg/kg, day 20, 10 mg/kg, per test subject, read-out: Cmax
  Cmax: 1660 ng/mL
[1]; Lewis, rat, plasma, po, 10 mg/kg, day 20, 10 mg/kg, per test subject, read-out: Tmax
  Tmax: 0.5 h
[1]; day 0, 10 mg/kg, 0.5 h, per test subject
  Plasma concentration: 673 ng/mL and 707 ng/mL
[1]; day 0, 10 mg/kg, 1 h, per test subject
  Plasma concentration: 1160 ng/mL and 1550 ng/mL
[1]; day 0, 10 mg/kg, 2 h, per test subject
  Plasma concentration: 997 ng/mL and 1610 ng/mL
[1]; day 0, 10 mg/kg, 4 h, per test subject
  Plasma concentration: 1060 ng/mL and 760 ng/mL
[1]; day 0, 10 mg/kg, 8 h, per test subject
  Plasma concentration: 107 ng/mL and 147 ng/mL
[1]; day 0, 10 mg/kg, 10 h, per test subject
  Plasma concentration: 2460 ng/mL and 1460 ng/mL
[1]; day 0, 10 mg/kg, 12 h, per test subject
  Plasma concentration: 968 ng/mL and 656 ng/mL
[1]; day 0, 10 mg/kg, 14 h, per test subject
  Plasma concentration: 525 ng/mL and 469 ng/mL
[1]; day 0, 10 mg/kg, Mean
  AUClast/D: 751 (ng·h/mL)/(mg/kg)
  AUC—% Extrap—obs: 2.29%
[1]; [4]
  AUCInf: 16528 ng·h/mL and 15290 ng·h/mL
  AUClast: 16397 ng·h/mL and 14408 ng·h/mL
  AUClast/D: 713 (ng·h/mL)/(mg/kg) and 820 (ng·h/mL)/(mg/kg) and 720 (ng·h/mL)/(mg/kg)
  AUC—% Extrap—obs: 0.307% and 0.788% and 5.77%
  Cmax: 2460 ng/mL and 1610 ng/mL
  MRTInf—obs: 8.69 h and 9.50 h
  Tmax: 10.0 h
[1]; day 20, 10 mg/kg, 0.25 h, per test subject
  Plasma concentration: 1400 ng/mL and 1570 ng/mL
[1]; day 20, 10 mg/kg, 0.5 h, per test subject
  Plasma concentration: 1550 ng/mL and 1730 ng/mL
[1]; day 20, 10 mg/kg, 1 h, per test subject
  Plasma concentration: 1730 ng/mL and 1590 ng/mL
[1]; day 20, 10 mg/kg, 2 h, per test subject
  Plasma concentration: 1260 ng/mL and 1320 ng/mL
[1]; day 20, 10 mg/kg, 4 h, per test subject
  Plasma concentration: 513 ng/mL and 518 ng/mL
[1]; day 20, 10 mg/kg, 10 h, per test subject
  Plasma concentration: 1710 ng/mL and 1460 ng/mL
[1]; day 20, 10 mg/kg, 12 h, per test subject
  Plasma concentration: 461 ng/mL and 498 ng/mL
[1]; [5]
  AUCInf: 11782 ng·h/mL and 11743 ng·h/mL
  AUClast: 11699 ng·h/mL and 11548 ng·h/mL
  AUClast/D: 421 (ng·h/mL)/(mg/kg) and 585 (ng·h/mL)/(mg/kg) and 577 (ng·h/mL)/(mg/kg)
  AUC—% Extrap—obs: 0.982% and 0.700% and 1.65%
  Cmax: 1730 ng/mL
  MRTInf—obs: 6.80 h and 7.09 h
  T1/2: 2.85 h and 3.54 h
  Tmax: 1.00 h and 0.500 h
IL-17A; Test Subject 1, read-out: IL-17A IC50
  IC50: 20.5 nM
IL-17A; Test Subject 2, read-out: IL-17A IC50
  IC50: 5.7 nM
IL-17A; Test Subject 3, read-out: IL-17A IC50
  IC50: 58.5 nM
IL-17A; mean of test subjects, read-out: IL-17A IC50 Mean
  IC50: 28.2 nM
IL-17A; human PBMC
  effectiveness in reducing inflammatory biomarkers IL-17A, IL-22, and CXCL-10 relative to GSK620: more effective than GSK620
IL-17A; human PBMC, 72 hours
  IC50 for IL-17A relative to GSK620: substantially lower IC50
IL-17A; human PBMC, from mean IC50
  Biomarker selectivity (IL-17 vs. CXCL10): >1063 Fold
IL-22; Test Subject 1, read-out: IL-22 IC50
  IC50: 14.8 nM
IL-22; Test Subject 2, read-out: IL-22 IC50
  IC50: 26.9 nM
IL-22; Test Subject 3, read-out: IL-22 IC50
  IC50: 21.1 nM
IL-22; mean of test subjects, read-out: IL-22 IC50 Mean
  IC50: 20.9 nM
IL-22; human PBMC, 72 hours
  IC50 for IL-22 relative to GSK620: substantially lower IC50
IL-22; human PBMC, from mean IC50
  Biomarker selectivity (IL-22 vs. CXCL10): >1433 Fold
CXCL10
  selectivity to induction of CXCL10 relative to IL-17A and IL-22: showed selectivity to induction of CXCL10 relative to IL-17A and IL-22
CXCL10; IFN-γ, 24 hours
  IC50 for CXCL-10 relative to GSK620: substantially lower IC50
CXCL10; Test Subject 1, read-out: CXCL10 IC50
  IC50: > 30000 nM
CXCL10; Test Subject 2, read-out: CXCL10 IC50
  IC50: > 30000 nM
CXCL10; Test Subject 3, read-out: CXCL10 IC50
  IC50: > 30000 nM
CXCL10; mean of test subjects, read-out: CXCL10 IC50 Mean
  IC50: > 30000 nM

Reference: patent US20250263370A1 (Tay Therapeutics Limited, priority 2022, published 2025)
